Test results taken from ChEMBL document CHEMBL4814006, “Novel amino substituted tetracyclic imidazo[4,5-b]pyridine derivatives: Design, synthesis, antiproliferative activity and DNA/RNA binding study” (Eur J Med Chem, 2021).
Active and inactive are the calls of the source. The calls are words filed in the database; no cut-off is given here.

Experiments:
[1] = tested on: HCT-116; assay: Antiproliferative activity against human HCT-116 cells assessed as inhibition of cell growth incubated for 72 hrs by MTT assay; assay type: functional, cell-based; conditions: HCT-116, 72 h
[2] = tested on: NCI-H460; assay: Antiproliferative activity against human NCI-H460 cells assessed as inhibition of cell growth incubated for 72 hrs by MTT assay; assay type: functional, cell-based; conditions: NCI-H460, 72 h
[3] = tested on: MCF7; assay: Antiproliferative activity against human MCF7 cells assessed as inhibition of cell growth incubated for 72 hrs by MTT assay; assay type: functional, cell-based; conditions: MCF7, 72 h
[4] = tested on: HEK293; assay: Cytotoxicity against human HEK293 cells assessed as inhibition of cell growth incubated for 72 hrs by MTT assay; assay type: cell-based; conditions: HEK293, 72 h
[5] = tested on: Calf thymus DNA; assay: Binding affinity to calf thymus DNA assessed as binding constant in sodium cacodylate buffer at pH 7 by fluorescence spectroscopy; conditions: Bos taurus
[6] = tested on: Calf thymus DNA; assay: Binding affinity to calf thymus DNA assessed as ratio of bound compound to polynucleotide phosphate in sodium cacodylate buffer at pH 7 by fluorescence spectroscopy based Scatchard analysis; conditions: Bos taurus
[7] = tested on: Calf thymus DNA; assay: Binding affinity to calf thymus DNA assessed as ratio of fluorescence intensity of compound-polynucleotide complex to fluorescence intensity of compound in sodium cacodylate buffer at pH 7 by fluorescence spectroscopy based Scatchard method; conditions: Bos taurus
[8] = tested on: Poly(dA-dU)oligonucleotide; assay: Binding affinity to polyA-polyU RNA (unknown origin) assessed as binding constant in sodium cacodylate buffer at pH 7 by fluorescence spectroscopy; assay type: nucleic-acid assay
[9] = tested on: Poly(dA-dU)oligonucleotide; assay: Binding affinity to polyA-polyU RNA (unknown origin) assessed as ratio of bound compound to polynucleotide phosphate in sodium cacodylate buffer at pH 7 by fluorescence spectroscopy based Scatchard method; assay type: nucleic-acid assay
[10] = tested on: Poly(dA-dU)oligonucleotide; assay: Binding affinity to polyA-polyU RNA (unknown origin) assessed as ratio of fluorescence intensity of compound-polynucleotide complex to fluorescence intensity of compound in sodium cacodylate buffer at pH 7 by fluorescence spectroscopy based Scatchard method; assay type: nucleic-acid assay
[11] = tested on: Poly(dA-dT)oligonucleotide; assay: Binding affinity to poly(dAdT)2 DNA (unknown origin) assessed as binding constant in sodium cacodylate buffer at pH 7 by fluorescence spectroscopy; assay type: nucleic-acid assay
[12] = tested on: Poly(dA-dT)oligonucleotide; assay: Binding affinity to poly(dAdT)2 DNA (unknown origin) assessed as ratio of bound compound to polynucleotide phosphate in sodium cacodylate buffer at pH 7 by fluorescence spectroscopy based Scatchard method; assay type: nucleic-acid assay
[13] = tested on: Poly(dA-dT)oligonucleotide; assay: Binding affinity to poly(dAdT)2 DNA (unknown origin) assessed as ratio of fluorescence intensity of compound-polynucleotide complex to fluorescence intensity of compound in sodium cacodylate buffer at pH 7 by fluorescence spectroscopy based Scatchard method; assay type: nucleic-acid assay
[14] = tested on: Poly(dG-dC)oligonucleotide; assay: Binding affinity to poly(dGdC)2 DNA (unknown origin) assessed as binding constant in sodium cacodylate buffer at pH 7 by fluorescence spectroscopy; assay type: nucleic-acid assay
[15] = tested on: Poly(dG-dC)oligonucleotide; assay: Binding affinity to poly(dGdC)2 DNA (unknown origin) assessed as ratio of bound compound to polynucleotide phosphate in sodium cacodylate buffer at pH 7 by fluorescence spectroscopy based Scatchard method; assay type: nucleic-acid assay
[16] = tested on: Poly(dG-dC)oligonucleotide; assay: Binding affinity to poly(dGdC)2 DNA (unknown origin) assessed as ratio of fluorescence intensity of compound-polynucleotide complex to fluorescence intensity of compound in sodium cacodylate buffer at pH 7 by fluorescence spectroscopy based Scatchard method; assay type: nucleic-acid assay
[17] = tested on: Calf thymus DNA; assay: Binding affinity to calf thymus DNA assessed as change in melting temperature in sodium cacodylate buffer at pH 7 at compound:polynucleotide concentration ratio of 0.3 by UV/Vis spectrophotometric analysis; assay type: nucleic-acid assay; conditions: Bos taurus
[18] = tested on: Poly(dA-dU)oligonucleotide; assay: Binding affinity to polyA-polyU RNA (unknown origin) assessed as change in melting temperature in sodium cacodylate buffer at pH 7 at compound:polynucleotide concentration ratio of 0.3 by UV/vis spectrophotometric analysis; assay type: nucleic-acid assay
[19] = tested on: Poly(dA-dT)oligonucleotide; assay: Binding affinity to poly(dAdT)2 DNA (unknown origin) assessed as change in melting temperature in sodium cacodylate buffer at pH 7 at compound:polynucleotide concentration ratio of 0.3 by UV/Vis spectrophotometric analysis; assay type: nucleic-acid assay
[20] = tested on: Quadruplex DNA; assay: Binding affinity to human Tel22 G quadruplex DNA assessed as binding constant in sodium cacodylate buffer at pH 7 at binding stoichiometry ratio of 1:1 by fluorescence spectroscopy; assay type: nucleic-acid assay
[21] = tested on: Quadruplex DNA; assay: Binding affinity to human Tel22 G quadruplex DNA assessed as ratio of fluorescence intensity of compound-polynucleotide complex to fluorescence intensity of compound in sodium cacodylate buffer at pH 7 at binding stoichiometry ratio of 1:1 by fluorescence spectroscopy; assay type: nucleic-acid assay
[22] = tested on: Quadruplex DNA; assay: Binding affinity to human Tel22 G quadruplex DNA assessed as change in melting temperature in sodium cacodylate buffer at pH 7 by UV/Vis spectrophotometric analysis; assay type: nucleic-acid assay
[23] = tested on: Poly(dA-dT)oligonucleotide; assay: Binding affinity to poly(dAdT)2 DNA (unknown origin) in sodium cacodylate buffer at pH 7 by CD spectroscopy; assay type: nucleic-acid assay
[24] = tested on: Poly(dG-dC)oligonucleotide; assay: Binding affinity to poly(dGdC)2 DNA (unknown origin) in sodium cacodylate buffer at pH 7 by CD spectroscopy; assay type: nucleic-acid assay
[25] = tested on: Poly(dA-dU)oligonucleotide; assay: Binding affinity to polyA-polyU RNA (unknown origin) in sodium cacodylate buffer at pH 7 by CD spectroscopy; assay type: nucleic-acid assay
[26] = tested on: Quadruplex DNA; assay: Binding affinity to human Tel22 G quadruplex DNA in sodium cacodylate buffer at pH 7 by CD spectroscopy; assay type: nucleic-acid assay

Structure (SMILES): N#Cc1c(N2CCNCC2)c2ccccc2n2c1nc1cccnc12
- IC50 [1]: 3600 nM
- IC50 [2]: 1800 nM
- IC50 [3]: 4700 nM

Structure (SMILES): N#Cc1cc2ccc(N3CCCCC3)cc2n2c1nc1ncccc12
- IC50 [1]: 10000 nM
- IC50 [2]: 49000 nM
- IC50 [3]: 5000 nM

Structure (SMILES): N#Cc1c(N2CCCCC2)c2ccc(N3CCCCC3)cc2n2c1nc1ncccc12
- IC50 [1]: 1800 nM
- IC50 [2]: 7000 nM
- IC50 [3]: 3600 nM

Structure (SMILES): N#Cc1cc2ccc(N3CCNCC3)cc2n2c1nc1cccnc12
- IC50 [1]: 400 nM
- IC50 [2]: 400 nM
- IC50 [3]: 400 nM
- IC50 [4]: 700 nM

Structure (SMILES): N#Cc1c(N2CCCCC2)c2ccccc2n2c1nc1ncccc12
- IC50 [1]: ≥ 100000 nM
- IC50 [2]: ≥ 100000 nM
- IC50 [3]: ≥ 100000 nM

Structure (SMILES): N#Cc1c(N2CCCCC2)c2ccccc2n2c1nc1cccnc12
- IC50 [1]: 47000 nM
- IC50 [2]: ≥ 100000 nM
- IC50 [3]: 16000 nM

Structure (SMILES): CC(C)CNc1ccc2cc(C#N)c3nc4ncccc4n3c2c1
- IC50 [1]: 3000 nM
- IC50 [2]: 12000 nM
- IC50 [3]: 3000 nM

Structure (SMILES): CC(C)CNc1ccc2cc(C#N)c3nc4cccnc4n3c2c1
- IC50 [1]: 500 nM
- IC50 [2]: 300 nM
- IC50 [3]: 400 nM
- IC50 [4]: 500 nM

Structure (SMILES): CC(C)CNc1ccc2c(NCC(C)C)c(C#N)c3nc4cccnc4n3c2c1
- IC50 [1]: 3000 nM
- IC50 [2]: 5400 nM
- IC50 [3]: 1800 nM

Structure (SMILES): N#Cc1c(Cl)c2ccc(F)cc2n2c1nc1cccnc12
- IC50 [1]: 3000 nM
- IC50 [2]: ≥ 100000 nM
- IC50 [3]: 2000 nM

Structure (SMILES): CN(C)CCCNc1c(C#N)c2nc3cccnc3n2c2ccccc12
- IC50 [1]: 900 nM
- IC50 [2]: 1400 nM
- IC50 [3]: 2900 nM
- IC50 [4]: 1800 nM

Structure (SMILES): N#Cc1cc2ccc(N3CCNCC3)cc2n2c1nc1ncccc12
- IC50 [1]: 900 nM
- IC50 [2]: 7000 nM
- IC50 [3]: 3100 nM

Structure (SMILES): COc1cc([C@@H]2c3cc4c(cc3[C@@H](O[C@@H]3O[C@@H]5CO[C@@H](C)O[C@H]5[C@H](O)[C@H]3O)[C@H]3COC(=O)[C@H]23)OCO4)cc(OC)c1O [ETOPOSIDE]
- IC50 [2]: 100 nM
- IC50 [3]: 1000 nM

Structure (SMILES): CN(C)CCCNc1ccc2cc(C#N)c3nc4cccnc4n3c2c1
- IC50 [1]: 400 nM
- IC50 [2]: 400 nM
- IC50 [3]: 700 nM
- IC50 [4]: 300 nM
- log Ks [5]: 5.5
- Ratio [6]: 0.6
- Ratio [7]: 0.5
- log Ks [8]: 6.3
- Ratio [9]: 0.1
- Ratio [10]: 0.8
- log Ks [11]: 6.9
- Ratio [12]: 0.2
- Ratio [13]: 0.7
- log Ks [14]: 5.8
- Ratio [15]: 0.2
- Ratio [16]: 0.4
- ΔTm [17]: 6.6 °C
- ΔTm [18]: 9.5 °C
- ΔTm [19]: 18.2 °C
- log Ks [20]: 5.48
- Ratio [21]: 0.7
- ΔTm [22]: 1.9 °C
- Activity [23]: Active
- Activity [24]: Active
- Activity [25]: Active
- Activity [26]: Active

Structure (SMILES): CC(C)CNc1c(C#N)c2nc3ncccc3n2c2ccccc12
- IC50 [1]: 14000 nM
- IC50 [2]: 17500 nM
- IC50 [3]: 14000 nM
- IC50 [4]: > 100000 nM
- log Ks [5]: 4.5
- Ratio [6]: < 0.1
- Ratio [7]: 2.2
- log Ks [8]: 4.7
- Ratio [9]: 0.1
- Ratio [10]: 7.1
- log Ks [11]: 5.1
- Ratio [12]: < 0.1
- Ratio [13]: 8.3
- log Ks [14]: 5.5
- Ratio [15]: < 0.1
- Ratio [16]: 0.5
- ΔTm [17]: 0 °C
- ΔTm [18]: 0.6 °C
- ΔTm [19]: 0 °C
- log Ks [20]: 4.69
- Ratio [21]: 4.75
- ΔTm [22]: 1.4 °C
- Activity [23]: Active
- Activity [24]: inactive
- Activity [26]: Active

Structure (SMILES): N#Cc1cc2ccc(F)cc2n2c1nc1cccnc12
- IC50 [1]: 5000 nM
- IC50 [2]: ≥ 100000 nM
- IC50 [3]: ≥ 100000 nM

Structure (SMILES): CC(C)CNc1ccc2c(NCC(C)C)c(C#N)c3nc4ncccc4n3c2c1
- IC50 [1]: 3700 nM
- IC50 [2]: 7600 nM
- IC50 [3]: 2000 nM
- Activity [26]: Active

Structure (SMILES): N#Cc1c(N2CCCCC2)c2ccc(N3CCCCC3)cc2n2c1nc1cccnc12
- IC50 [1]: 1000 nM
- IC50 [2]: ≥ 100000 nM
- IC50 [3]: 500 nM
- IC50 [4]: > 100000 nM

Structure (SMILES): N#Cc1cc2ccc(N3CCCCC3)cc2n2c1nc1cccnc12
- IC50 [1]: 5500 nM
- IC50 [2]: ≥ 100000 nM
- IC50 [3]: 3000 nM

Structure (SMILES): N#Cc1c(N2CCNCC2)c2ccccc2n2c1nc1ncccc12
- IC50 [1]: 3500 nM
- IC50 [2]: 7000 nM
- IC50 [3]: 3000 nM

Structure (SMILES): CN(C)CCCNc1ccc2cc(C#N)c3nc4ncccc4n3c2c1
- IC50 [1]: 2300 nM
- IC50 [2]: 11000 nM
- IC50 [3]: 12000 nM
- IC50 [4]: 4000 nM
- log Ks [5]: 6
- Ratio [6]: 0.4
- Ratio [7]: 0.5
- log Ks [8]: 5.5
- Ratio [9]: 0.4
- Ratio [10]: 0.8
- log Ks [11]: 6.4
- Ratio [12]: 0.4
- Ratio [13]: 0.8
- log Ks [14]: 5.6
- Ratio [15]: 0.4
- Ratio [16]: 0.4
- ΔTm [17]: 4.2 °C
- ΔTm [18]: 4.5 °C
- ΔTm [19]: 9.9 °C
- log Ks [20]: 5.35
- Ratio [21]: 0.66
- ΔTm [22]: 2 °C
- Activity [23]: Active
- Activity [24]: Active
- Activity [25]: Active
- Activity [26]: Active

Structure (SMILES): N#Cc1c(Cl)c2ccccc2n2c1nc1cccnc12
- IC50 [1]: 3000 nM
- IC50 [2]: ≥ 100000 nM
- IC50 [3]: 6000 nM

Structure (SMILES): CN(C)CCCNc1c(C#N)c2nc3ncccc3n2c2ccccc12
- IC50 [1]: 800 nM
- IC50 [2]: 2000 nM
- IC50 [3]: 3200 nM
- IC50 [4]: 2600 nM

Structure (SMILES): N#Cc1c(Cl)c2ccc(F)cc2n2c1nc1ncccc12
- IC50 [1]: 3500 nM
- IC50 [2]: ≥ 100000 nM
- IC50 [3]: 2000 nM

Structure (SMILES): N#Cc1cc2ccc(F)cc2n2c1nc1ncccc12
- IC50 [1]: ≥ 100000 nM
- IC50 [2]: ≥ 100000 nM
- IC50 [3]: ≥ 100000 nM
